# From patent US8642590B2, “Alkylcyclohexylethers of dihydrotetraazabenzoazulenes” (Hoffmann-La Roche Inc., priority 2008, dated 2014)
# Structures can show the parent of a compound that is named as a salt.
# Target: T1, human V1a receptor (Homo sapiens, UniProt P37288)
# T1 construct: expressed in transfected cells; host or cells: HEK293 cells, transiently transfected; cell membranes prepared
# Assay: human V1a receptor binding study (3H-Vasopressin, SPA beads, HEK293 membranes)
# Conditions: not given
# Protocol: The human V1a receptor was cloned by RT-PCR from total human liver RNA. The coding sequence was subcloned in an expression vector after sequencing to confirm the identity of the amplified sequence. […] Cell membranes were prepared from HEK293 cells transiently transfected with the expression vector and grown in 20 liter fermenters with the following protocol.
# 50 g of cells are resuspended in 30 ml freshly prepared ice cold Lysis buffer (50 mM HEPES, 1 mM EDTA, 10 mM magnesium dichloride adjusted to pH=7.4+complete cocktail of protease inhibitor (Roche Diagnostics)). Homogenized with Polytron for 1 min and sonicated on ice for 2×2 minutes at 80% intensity (Vibracell sonicator). The preparation is centrifuged 20 min at 500 g at 4° C., the pellet is discarded and the supernatant centrifuged 1 hour at 43,000 g at 4° C. (19,000 rpm). The pellet is resuspended in 12.5 ml Lysis buffer+12.5 ml Sucrose 20% and homogenized using a Polytron for 1-2 min. The protein concentration is determined by the Bradford method and aliquots are stored at −80° C. until use. For binding studies 60 mg Yttrium silicate SPA beads (Amersham) are mixed with an aliquot of membrane in binding buffer (50 mM Tris, 120 mM sodium chloride, 5 mM potassium chloride, 2 mM Calcium dichloride, 10 mM magnesium dichloride) for 15 minutes with mixing. 50 μl of bead/membrane mixture is then added to each well of a 96 well plate, followed by 50 μl of 4 nM 3H-Vasopressin (American Radiolabeled Chemicals). For total binding measurement 100 μl of binding buffer are added to the respective wells, for non-specific binding 100 μl of 8.4 mM cold vasopressin and for compound testing 100 μl of a serial dilution of each compound in 2% dimethyl sulfoxide. The plate is incubated 1 h at room temperature, centrifuged 1 min at 1000 g and counted on a Packard Top-Count. Non-specific binding counts are subtracted from each well and data is normalized to the maximum specific binding set at 100%. To calculate an IC 50 the curve is fitted using a non-linear regression model (XLfit) and the Ki is calculated using the Cheng-Prussoff equation.
# T1 sequence (P37288 whole entry): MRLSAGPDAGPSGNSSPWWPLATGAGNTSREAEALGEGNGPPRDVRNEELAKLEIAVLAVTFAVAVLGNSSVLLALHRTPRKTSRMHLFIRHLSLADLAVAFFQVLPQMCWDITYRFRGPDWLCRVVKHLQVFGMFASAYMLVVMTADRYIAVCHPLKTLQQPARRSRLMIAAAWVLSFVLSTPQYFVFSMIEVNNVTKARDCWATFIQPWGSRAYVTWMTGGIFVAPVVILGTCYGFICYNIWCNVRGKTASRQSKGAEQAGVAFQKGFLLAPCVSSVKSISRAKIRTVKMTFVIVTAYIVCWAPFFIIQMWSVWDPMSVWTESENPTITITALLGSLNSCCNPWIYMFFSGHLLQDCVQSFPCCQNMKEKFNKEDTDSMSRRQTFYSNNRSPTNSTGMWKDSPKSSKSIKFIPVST
row,SMILES,Ki [nM]
1,"CC(C)(C)OC(=O)N1Cc2cc(Cl)ccc2-n2c(nnc2[C@H]2CC[C@H](OC3CCC3)CC2)C1 [Example 30, trans-8-Chloro-1-(4-cyclobutoxy-cyclohexyl)-4H,6H-2,3,5,10b-tetraaza-benzo[e]azulene-5-carboxylic acid tert-butyl ester]",2.82
2,"CC(C)(C)OC(=O)N1Cc2cc(Cl)ccc2-n2c(nnc2[C@H]2CC[C@@H](OC3CCC3)CC2)C1 [Example 33, cis-8-Chloro-1-(4-cyclobutoxy-cyclohexyl)-4H,6H-2,3,5,10b-tetraaza-benzo[e]azulene-5-carboxylic acid tert-butyl ester]",7.59
3,"CC(C)(C)OC(=O)N1Cc2cc(Cl)ccc2-n2c(nnc2[C@H]2CC[C@H](OC3CCCCC3)CC2)C1 [Example 39, trans-8-Chloro-1-(4-cyclohexyloxy-cyclohexyl)-4H,6H-2,3,5,10b-tetraaza-benzoazulene-5-carboxylic acid tert-butyl ester]",6.46
4,"CC(C)(C)OC(=O)N1Cc2cc(Cl)ccc2-n2c(nnc2[C@H]2CC[C@@H](OC3CCCCC3)CC2)C1 [Example 42, cis-8-Chloro-1-(4-cyclohexyloxy-cyclohexyl)-4H,6H-2,3,5,10b-tetraaza-benzoazulene-5-carboxylic acid tert-butyl ester]",17.8

# Same assay, conditions: membranes of HEK293 cells transiently transfected with human V1a receptor; 3H-Vasopressin; Ki calculated using the Cheng-Prussoff equation; read-out: pKi (hV1a) (converted)
row,SMILES,Ki [nM]
1,"CC(C)O[C@H]1CC[C@H](c2nnc3n2-c2ccc(Cl)cc2CN(C)C3)CC1 [Example 10, trans-8-Chloro-1-(4-isopropoxy-cyclohexyl)-5-methyl-5,6-dihydro-4H-2,3,5,10b-tetraaza-benzo[e]azulene]",2.82
2,"CC(C)O[C@H]1CC[C@H](c2nnc3n2-c2ccc(Cl)cc2CN(S(C)(=O)=O)C3)CC1 [Example 11, trans-8-Chloro-1-(4-isopropoxy-cyclohexyl)-5-methanesulfonyl-5,6-dihydro-4H-2,3,5,10b-tetraaza-benzoazulene]",1.1
3,"CC(C)O[C@H]1CC[C@H](c2nnc3n2-c2ccc(Cl)cc2CN(CCO)C3)CC1 [Example 12, trans-2-[8-Chloro-1-(4-isopropoxy-cyclohexyl)-4H,6H-2,3,5,10b-tetraaza-benzoazulen-5-yl]-ethanol]",2.29
4,"CC(C)O[C@H]1CC[C@H](c2nnc3n2-c2ccc(Cl)cc2CN(C(C)C)C3)CC1 [Example 13, trans-8-Chloro-1-(4-isopropoxy-cyclohexyl)-5-isopropyl-5,6-dihydro-4H-2,3,5,10b-tetraaza-benzoazulene]",1.51
5,"CC(C)O[C@H]1CC[C@H](c2nnc3n2-c2ccc(Cl)cc2CN(S(=O)(=O)N(C)C)C3)CC1 [Example 14, trans-8-Chloro-1-(4-isopropoxy-cyclohexyl)-4H,6H-2,3,5,10b-tetraaza-benzoazulene-5-sulfonic acid dimethylamide]",1
6,"CC(C)O[C@H]1CC[C@H](c2nnc3n2-c2ccc(Cl)cc2CN(Cc2ccccn2)C3)CC1 [Example 15, trans-8-Chloro-1-(4-isopropoxy-cyclohexyl)-5-pyridin-2-ylmethyl-5,6-dihydro-4H-2,3,5,10b-tetraaza-benzoazulene]",1.41
7,"CC(=O)OCC(=O)N1Cc2cc(Cl)ccc2-n2c(nnc2[C@H]2CC[C@H](OC(C)C)CC2)C1 [Example 16, trans-Acetic acid 2-[8-chloro-1-(4-isopropoxy-cyclohexyl)-4H,6H-2,3,5,10b-tetraaza-benzoazulen-5-yl]-2-oxo-ethyl ester]",3.47
8,"CC(C)O[C@H]1CC[C@H](c2nnc3n2-c2ccc(Cl)cc2CN(C(=O)CO)C3)CC1 [Example 17, trans-1-[8-Chloro-1-(4-isopropoxy-cyclohexyl)-4H,6H-2,3,5,10b-tetraaza-benzoazulen-5-yl]-2-hydroxy-ethanone]",3.47
9,"CC(=O)N1Cc2cc(Cl)ccc2-n2c(nnc2[C@H]2CC[C@H](OC(C)C)CC2)C1 [Example 18, trans-1-[8-Chloro-1-(4-isopropoxy-cyclohexyl)-4H,6H-2,3,5,10b-tetraaza-benzoazulen-5-yl]-ethanone]",2.51
10,"CC(C)O[C@H]1CC[C@H](c2nnc3n2-c2ccc(F)cc2CN(C(=O)OC(C)(C)C)C3)CC1 [Example 19, trans-8-Fluoro-1-(4-isopropoxy-cyclohexyl)-4H,6H-2,3,5,10b-tetraaza-benzo[e]azulene-5-carboxylic acid tert-butyl ester]",3.8
11,"CC(C)O[C@H]1CC[C@H](c2nnc3n2-c2ccc(F)cc2CNC3)CC1 [Example 20, trans-8-Fluoro-1-(4-isopropoxy-cyclohexyl)-5,6-dihydro-4H-2,3,5,10b-tetraaza-benzo[e]azulene hydrochloride]",251
12,"CC(C)O[C@H]1CC[C@H](c2nnc3n2-c2ccc(F)cc2CN(C)C3)CC1 [Example 21, trans-8-Fluoro-1-(4-isopropoxy-cyclohexyl)-5-methyl-5,6-dihydro-4H-2,3,5,10b-tetraaza-benzo[e]azulene]",29.5
13,"CC(C)O[C@H]1CC[C@@H](c2nnc3n2-c2ccc(Cl)cc2CN(C(=O)OC(C)(C)C)C3)CC1 [Example 22, cis-8-Chloro-1-(4-isopropoxy-cyclohexyl)-4H,6H-2,3,5,10b-tetraaza-benzo[e]azulene-5-carboxylic acid tert-butyl ester]",8.91
14,"CC(C)O[C@H]1CC[C@@H](c2nnc3n2-c2ccc(Cl)cc2CNC3)CC1 [Example 23, cis-8-Chloro-1-(4-isopropoxy-cyclohexyl)-5,6-dihydro-4H-2,3,5,10b-tetraaza-benzo[e]azulene hydrochloride]",363
15,"CC(C)O[C@H]1CC[C@@H](c2nnc3n2-c2ccc(Cl)cc2CN(C)C3)CC1 [Example 24, cis-8-Chloro-1-(4-isopropoxy-cyclohexyl)-5-methyl-5,6-dihydro-4H-2,3,5,10b-tetraaza-benzo[e]azulene]",26.9
16,"Clc1ccc2c(c1)CNCc1nnc([C@H]3CC[C@H](OC4CCC4)CC3)n1-2 [Example 31, trans-8-Chloro-1-(4-cyclobutoxy-cyclohexyl)-5,6-dihydro-4H-2,3,5,10b-tetraaza-benzo[e]azulene hydrochloride]",10.7
17,"CN1Cc2cc(Cl)ccc2-n2c(nnc2[C@H]2CC[C@H](OC3CCC3)CC2)C1 [Example 32, trans-8-Chloro-1-(4-cyclobutoxy-cyclohexyl)-5-methyl-5,6-dihydro-4H-2,3,5,10b-tetraaza-benzo[e]azulene]",1.29
18,"Clc1ccc2c(c1)CNCc1nnc([C@H]3CC[C@@H](OC4CCC4)CC3)n1-2 [Example 34, cis-8-Chloro-1-(4-cyclobutoxy-cyclohexyl)-5,6-dihydro-4H-2,3,5,10b-tetraaza-benzo[e]azulene hydrochloride]",145
19,"CN1Cc2cc(Cl)ccc2-n2c(nnc2[C@H]2CC[C@@H](OC3CCC3)CC2)C1 [Example 35, cis-8-Chloro-1-(4-cyclobutoxy-cyclohexyl)-5-methyl-5,6-dihydro-4H-2,3,5,10b-tetraaza-benzo[e]azulene]",7.94
20,"Clc1ccc2c(c1)CNCc1nnc([C@H]3CC[C@H](OC4CCCC4)CC3)n1-2 [Example 37, trans-8-Chloro-1-(4-cyclopentyloxy-cyclohexyl)-5,6-dihydro-4H-2,3,5,10b-tetraaza-benzo[e]azulene hydrochloride]",3.47
21,"CN1Cc2cc(Cl)ccc2-n2c(nnc2[C@H]2CC[C@H](OC3CCCC3)CC2)C1 [Example 38, trans-8-Chloro-1-(4-cyclopentyloxy-cyclohexyl)-5-methyl-5,6-dihydro-4H-2,3,5,10b-tetraaza-benzo[e]azulene]",0.794
22,"Clc1ccc2c(c1)CNCc1nnc([C@H]3CC[C@H](OC4CCCCC4)CC3)n1-2 [Example 40, trans-8-Chloro-1-(4-cyclohexyloxy-cyclohexyl)-5,6-dihydro-4H-2,3,5,10b-tetraaza-benzoazulene hydrochloride]",34.7
23,"CN1Cc2cc(Cl)ccc2-n2c(nnc2[C@H]2CC[C@H](OC3CCCCC3)CC2)C1 [Example 41, trans-8-Chloro-1-(4-cyclohexyloxy-cyclohexyl)-5-methyl-5,6-dihydro-4H-2,3,5,10b-tetraaza-benzoazulene]",2.88
24,"Clc1ccc2c(c1)CNCc1nnc([C@H]3CC[C@@H](OC4CCCCC4)CC3)n1-2 [Example 43, cis-8-Chloro-1-(4-cyclohexyloxy-cyclohexyl)-5,6-dihydro-4H-2,3,5,10b-tetraaza-benzoazulene hydrochloride]",174
25,"CN1Cc2cc(Cl)ccc2-n2c(nnc2[C@H]2CC[C@@H](OC3CCCCC3)CC2)C1 [Example 44, cis-8-Chloro-1-(4-cyclohexyloxy-cyclohexyl)-5-methyl-5,6-dihydro-4H-2,3,5,10b-tetraaza-benzoazulene]",14.1
